Key:
c-Raf = c-Raf (Homo sapiens, UniProt P04049); experiment: Luciferase-coupled chemiluminescence kinase assay (ATP consumption), c-Raf; format: biochemical; details: read-out: cRaf-1 (inhibition indicated as IC50)
Summary of the method: (§1)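 Compound is first mixed with […] Raf enzyme in 20 mM Tris pH 7.5 containing 10 mM MgCl2, 0.03% TX-100 and 1 mM DTT (30 min, room temperature). ATP then starts a 3 h reaction, and unconsumed ATP is detected by chemiluminescence.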

B-Raf = B-Raf (Homo sapiens, UniProt P15056); experiment: Luciferase-coupled chemiluminescence kinase assay (ATP consumption), B-Raf; format: biochemical; details: read-out: bRaf (inhibition indicated as IC50)
Summary of the method: as §1

Chain of B-Raf (P15056 whole entry): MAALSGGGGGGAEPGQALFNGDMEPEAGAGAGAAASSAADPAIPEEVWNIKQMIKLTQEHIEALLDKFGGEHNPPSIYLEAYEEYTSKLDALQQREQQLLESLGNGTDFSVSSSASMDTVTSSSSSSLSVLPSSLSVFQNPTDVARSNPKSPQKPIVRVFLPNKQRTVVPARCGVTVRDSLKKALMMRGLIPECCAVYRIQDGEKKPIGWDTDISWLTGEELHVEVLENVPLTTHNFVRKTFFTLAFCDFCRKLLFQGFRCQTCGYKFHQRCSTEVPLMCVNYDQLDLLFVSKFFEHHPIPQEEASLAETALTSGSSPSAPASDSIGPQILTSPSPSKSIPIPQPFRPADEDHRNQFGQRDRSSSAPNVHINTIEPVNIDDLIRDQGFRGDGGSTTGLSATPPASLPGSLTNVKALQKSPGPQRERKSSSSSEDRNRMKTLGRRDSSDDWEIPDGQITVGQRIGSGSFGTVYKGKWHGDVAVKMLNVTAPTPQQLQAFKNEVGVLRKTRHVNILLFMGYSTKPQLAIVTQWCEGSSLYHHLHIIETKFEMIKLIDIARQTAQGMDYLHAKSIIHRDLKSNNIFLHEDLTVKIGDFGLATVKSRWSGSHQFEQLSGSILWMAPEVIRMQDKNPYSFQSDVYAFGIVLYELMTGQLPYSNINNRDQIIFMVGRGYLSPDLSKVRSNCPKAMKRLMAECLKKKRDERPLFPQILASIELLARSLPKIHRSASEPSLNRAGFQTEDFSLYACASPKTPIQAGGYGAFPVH
Chain of c-Raf (P04049 whole entry): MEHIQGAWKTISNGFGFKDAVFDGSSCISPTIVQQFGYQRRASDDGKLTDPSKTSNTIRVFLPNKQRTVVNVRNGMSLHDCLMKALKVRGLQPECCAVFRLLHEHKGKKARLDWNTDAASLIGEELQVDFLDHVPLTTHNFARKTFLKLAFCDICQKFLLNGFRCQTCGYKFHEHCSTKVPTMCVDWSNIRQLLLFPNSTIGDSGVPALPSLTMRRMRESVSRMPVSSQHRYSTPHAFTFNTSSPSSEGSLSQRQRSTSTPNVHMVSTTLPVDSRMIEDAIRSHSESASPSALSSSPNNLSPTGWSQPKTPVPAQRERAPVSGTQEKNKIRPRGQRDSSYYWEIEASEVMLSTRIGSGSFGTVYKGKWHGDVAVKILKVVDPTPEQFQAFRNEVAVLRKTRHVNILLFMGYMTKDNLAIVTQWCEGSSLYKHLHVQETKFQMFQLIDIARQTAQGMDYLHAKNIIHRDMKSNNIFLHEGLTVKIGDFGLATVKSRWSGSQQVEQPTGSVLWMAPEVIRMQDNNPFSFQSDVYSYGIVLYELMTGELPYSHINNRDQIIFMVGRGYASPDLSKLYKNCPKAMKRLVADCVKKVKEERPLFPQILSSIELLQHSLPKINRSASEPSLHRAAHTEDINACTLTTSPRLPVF

IC50 (c-Raf) [nM]	IC50 (B-Raf) [nM]	Structure (SMILES)
< 100	< 100	O=C(CCCN1CCCCC1)Nc1nc2cc(C3(O)c4ccccc4C(=O)N3c3cccc(Oc4ccccc4)c3)ccc2[nH]1 (stereo not shown) [Entry 319, N-(5-{1-hydroxy-3-oxo-2-[3-(phenyloxy)phenyl]-2,3-dihydro-1H-isoindol-1-yl}-1H-benzimidazol-2-yl)-4-piperidin-1-ylbutanamide]
< 100	< 100	COC(=O)Nc1nc2ccc(C3(C)c4ccccc4C(=O)N3c3cccc(Br)c3)cc2[nH]1 (stereo not shown) [Entry 320, methyl {6-[2-(3-bromophenyl)-1-methyl-3-oxo-2,3-dihydro-1H-isoindol-1-yl]-1H-benzimidazol-2-yl}carbamate]
< 100	< 100	CCN(CC)CC#CCOC(=O)Nc1nc2ccc(C3(O)c4ccccc4C(=O)N3c3cccc(Cl)c3F)cc2[nH]1 (stereo not shown) [Entry 321, 4-(diethylamino)but-2-yn-1-yl {6-[2-(3-chloro-2-fluorophenyl)-1-hydroxy-3-oxo-2,3-dihydro-1H-isoindol-1-yl]-1H-benzimidazol-2-yl}carbamate]
< 100	< 100	COC(=O)Nc1nc2cc(C3(O)c4ccccc4C(=O)N3c3c(F)ccc(Cl)c3F)ccc2[nH]1 (stereo not shown) [Entry 322, methyl {5-[2-(3-chloro-2,6-difluorophenyl)-1-hydroxy-3-oxo-2,3-dihydro-1H-isoindol-1-yl]-1H-benzimidazol-2-yl}carbamate]
< 100	< 100	O=C(Nc1nc2ccc(C3(O)c4ccccc4C(=O)N3c3cccc(Cl)c3F)cc2[nH]1)OCCN1CCCC1=O (stereo not shown) [Entry 323, 2-(2-oxopyrrolidin-1-yl)ethyl {6-[2-(3-chloro-2-fluorophenyl)-1-hydroxy-3-oxo-2,3-dihydro-1H-isoindol-1-yl]-1H-benzimidazol-2-yl}carbamate]
< 100	< 100	O=C(Nc1nc2ccc(C3(O)c4ccccc4C(=O)N3c3cccc(Cl)c3F)cc2[nH]1)OCCN1C(=O)CCC1=O (stereo not shown) [Entry 324, 2-(2,5-dioxopyrrolidin-1-yl)ethyl {6-[2-(3-chloro-2-fluorophenyl)-1-hydroxy-3-oxo-2,3-dihydro-1H-isoindol-1-yl]-1H-benzimidazol-2-yl}carbamate]
< 100	< 100	O=C(Nc1nc2cc(C3(O)c4ccccc4C(=O)N3c3cccc(Cl)c3F)ccc2[nH]1)OC1CC(F)(F)C1(F)F (stereo not shown) [Entry 325, 2,2,3,3-tetrafluorocyclobutyl {5-[2-(3-chloro-2-fluorophenyl)-1-hydroxy-3-oxo-2,3-dihydro-1H-isoindol-1-yl]-1H-benzimidazol-2-yl}carbamate]
< 100	< 100	CC(=O)N1CCC(C(=O)Nc2nc3cc(C4(O)c5ccccc5C(=O)N4c4cccc(Cl)c4F)ccc3[nH]2)CC1 (stereo not shown) [Entry 326, 1-acetyl-N-{5-[2-(3-chloro-2-fluorophenyl)-1-hydroxy-3-oxo-2,3-dihydro-1H-isoindol-1-yl]-1H-benzimidazol-2-yl}piperidine-4-carboxamide]
< 100	< 100	O=C(Nc1nc2cc(C3(O)c4ccccc4C(=O)N3c3cccc(Cl)c3F)ccc2[nH]1)C1CCC1 (stereo not shown) [Entry 327, N-{5-[2-(3-chloro-2-fluorophenyl)-1-hydroxy-3-oxo-2,3-dihydro-1H-isoindol-1-yl]-1H-benzimidazol-2-yl}cyclobutanecarboxamide]
100 to 1000	100 to 1000	CCN(c1ccccc1)c1cccc(N2C(=O)c3ccccc3C2(O)c2ccc3[nH]c(NC(=O)OC)nc3c2)c1 (stereo not shown) [Entry 328, methyl [5-(2-{3-[ethyl(phenyl)amino]phenyl}-1-hydroxy-3-oxo-2,3-dihydro-1H-isoindol-1-yl)-1H-benzimidazol-2-yl]carbamate]
< 100	< 100	O=C(Nc1nc2ccc(C3(O)c4ccccc4C(=O)N3c3cccc(Cl)c3F)cc2[nH]1)C1CC1(F)F (stereo not shown) [Entry 329, N-{6-[2-(3-chloro-2-fluorophenyl)-1-hydroxy-3-oxo-2,3-dihydro-1H-isoindol-1-yl]-1H-benzimidazol-2-yl}-2,2-difluorocyclopropanecarboxamide]
< 100	< 100	O=C(Nc1nc2ccc(C3(O)c4ccccc4C(=O)N3c3cccc(Cl)c3F)cc2[nH]1)OC1CCC1 (stereo not shown) [Entry 330, cyclobutyl {6-[2-(3-chloro-2-fluorophenyl)-1-hydroxy-3-oxo-2,3-dihydro-1H-isoindol-1-yl]-1H-benzimidazol-2-yl}carbamate]
< 100	< 100	O=C(Nc1nc2ccc(C3(O)c4ccccc4C(=O)N3c3cccc(Cl)c3F)cc2[nH]1)OCC(F)F (stereo not shown) [Entry 331, 2,2-difluoroethyl {6-[2-(3-chloro-2-fluorophenyl)-1-hydroxy-3-oxo-2,3-dihydro-1H-isoindol-1-yl]-1H-benzimidazol-2-yl}carbamate]
< 100	< 100	O=C1c2ccccc2C(O)(c2ccc3[nH]c(Nc4ccccn4)nc3c2)N1c1cccc(Cl)c1F (stereo not shown) [Entry 332, 2-(3-chloro-2-fluorophenyl)-3-hydroxy-3-[2-(pyridin-2-ylamino)-1H-benzimidazol-5-yl]-2,3-dihydro-1H-isoindol-1-one]
< 100	< 100	CC(C)OC(=O)Nc1nc2ccc(C3(O)c4ccccc4C(=O)N3c3cccc(Cl)c3F)cc2[nH]1 (stereo not shown) [Entry 333, 1-methylethyl {6-[2-(3-chloro-2-fluorophenyl)-1-hydroxy-3-oxo-2,3-dihydro-1H-isoindol-1-yl]-1H-benzimidazol-2-yl}carbamate]
< 100	< 100	O=C(Nc1nc2ccc(C3(O)c4ccccc4C(=O)N3c3cccc(Cl)c3F)cc2[nH]1)OCC1CC1 (stereo not shown) [Entry 334, cyclopropylmethyl {6-[2-(3-chloro-2-fluorophenyl)-1-hydroxy-3-oxo-2,3-dihydro-1H-isoindol-1-yl]-1H-benzimidazole-2-yl}carbamate]
< 100	< 100	O=C(Nc1nc2cc(C3(O)c4ccccc4C(=O)N3c3cccc(Cl)c3F)ccc2[nH]1)C1CC1 (stereo not shown) [Entry 335, N-{5-[2-(3-chloro-2-fluorophenyl)-1-hydroxy-3-oxo-2,3-dihydro-1H-isoindol-1-yl]-1H-benzimidazol-2-yl}cyclopropanecarboxamide]
< 100	< 100	COCCOC(=O)Nc1nc2cc(C3(O)c4ccccc4C(=O)N3c3cccc(Cl)c3F)ccc2[nH]1 (stereo not shown) [Entry 336, 2-(methyloxy)ethyl {5-[2-(3-chloro-2-fluorophenyl)-1-hydroxy-3-oxo-2,3-dihydro-1H-isoindol-1-yl]-1H-benzimidazol-2-yl}carbamate]
< 100	< 100	O=C(Nc1nc2ccc(C3(O)c4ccccc4C(=O)N3c3cccc(Cl)c3F)cc2[nH]1)OCC1CCCO1 (stereo not shown) [Entry 337, tetrahydrofuran-2-ylmethyl {6-[2-(3-chloro-2-fluorophenyl)-1-hydroxy-3-oxo-2,3-dihydro-1H-isoindol-1-yl]-1H-benzimidazol-2-yl}carbamate]
< 100	< 100	O=C(Cc1cccs1)Nc1nc2cc(C3(O)c4ccccc4C(=O)N3c3cccc(Cl)c3F)ccc2[nH]1 (stereo not shown) [Entry 338, N-{5-[2-(3-chloro-2-fluorophenyl)-1-hydroxy-3-oxo-2,3-dihydro-1H-isoindol-1-yl]-1H-benzimidazol-2-yl}-2-(2-thienyl)acetamide]

Source: US7846959B2, “Raf modulators and methods of use” (Exelixis, Inc., priority 2004, dated 2010)
